Holding throughout (type): cell-based
In experiment [1] the test system is KRAS G12D mutant human metastatic pancreatic cancer cell AsPc-1. The experiment in a line: 3D cell proliferation inhibition assay, AsPc-1. Particulars: ASPC1, 168 h, 3D culture, 7 days, CTG. Put shortly: (§1)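 Cells seeded in low-adsorption plates at 5×10^2 cells/well (MKN1 1×10^3) with compounds at final 10000–0.026 nM, 0.2% DMSO, 3D culture 7 days at 37 °C. Viability by CellTiter-Glo luminescence; inhibition normalised to DMSO and medium-only controls, IC50 from nonlinear log-concentration fit.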

Experiment [2] relates to KRAS G12D mutant human lung cancer cell A427. The experiment can be described thus: 3D cell proliferation inhibition assay, A427. The conditions noted are these: A-427, 168 h, 3D culture, 7 days, CTG. The text has this: (§2) Test Example 6: 3D Cell Proliferation Inhibition Assay
(§3) The inhibitory effects of the compounds on 3D cell proliferation were investigated on KRAS G12C mutant human non-small cell lung cancer cell NCI-H358, KRAS G12D mutant human lung cancer cell A427, KRAS G12D mutant human gastric cancer cell AGS, KRAS G12D mutant human metastatic pancreatic cancer cell AsPc-1, KRAS G12V mutant human lung squamous carcinoma cell SW900, KRAS G12V mutant human colorectal cancer cell SW620, KRAS G13D mutant human colorectal cancer epithelial cell DLD-1, and KRAS WT human gastric cancer cell MKN1. The specific procedures were as follows:
(§4) 10 μL of each compound solution diluted in a gradient was added to corresponding wells of a 96-well low-adsorption microplate (PerkinElmer), so that the final concentrations of the test compounds in the reaction system were in a range of 10000-0.026 nM. The final concentration of DMSO was 0.2%. Then 90 µL of cells were correspondingly seeded into each well to achieve a cell density of 5×10^2 cells/well (the cell density of SW900 was 5×10^3 cells/well, and the cell density of MKN1 was 1×10^3 cells/well). In addition to test wells for the test compounds, both a DMSO control well and a medium control well were set, with the DMSO control well containing DMSO and cells and the medium well containing only a medium. After the sample loading, the 96-well low-adsorption microplate was incubated in an incubator at 37° C. with […] for 7 days. After 7 days, the microplate was taken out, and 100 μL of CTG reagent (Promega) was added to each well. The plate was incubated at room temperature for 60 m and read on a microplate reader EnVision by the chemiluminescence program. The inhibition rates of the compounds at each concentration were calculated using the formula for the percentage inhibition of cell proliferation: inhibition rate 00=(mean value of DMSO control group−single concentration reading value of compound)/(mean value of DMSO control group−mean value of medium control group)×100. Then non-linear curve fillings for logarithmic concentration-inhibition rate were performed by GraphPad Prism 8, and the IC50 values of the compounds were obtained (Table 6).

Experiment [3] relates to KRAS G12C mutant human non-small cell lung cancer cell NCI-H358. The experiment can be described thus: 3D cell proliferation inhibition assay, NCI-H358. Particulars: NCI-H358, 168 h, 3D culture, 7 days, CTG. The essentials: as §1
The subject of experiment [4] is KRAS WT human gastric cancer cell MKN1. The experiment can be described thus: 3D cell proliferation inhibition assay, MKN1. The conditions noted are these: MKN-1, 168 h, 3D culture, 7 days, CTG.
Text: as §2, §3, §4

The test system of experiment [5] is KRAS G12D mutant human gastric cancer cell AGS. The experiment can be described thus: 3D cell proliferation inhibition assay, AGS. Particulars: 168 h, 3D culture, 7 days, CTG.
Text: as §2, §3, §4

Experiment [6] has as its target T1, KRAS G12V protein in SW900 cells (Homo sapiens, UniProt P01116, G12V).
T1 construct: endogenous in cells; host or cells: SW900
The experiment can be described thus: KRAS degradation assay (Western Blot) in SW900 cells. Particulars: 24 h. Put shortly:
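5×10^5 cells/well; cpd 0.03–3000 nM final, 0.25% DMSO, 24 h, 37 °C/5% CO2. RIPA lysis, 5 µg protein/lane, anti-KRAS WB, β-actin loading ref. DC50/Dmax by nonlinear fit.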
(In general: A western blot detects proteins with antibodies after separation by electrophoresis.)

In experiment [7] the test system is KRAS G12V mutant human lung squamous carcinoma cell SW900. The experiment can be described thus: 3D cell proliferation inhibition assay, SW900. Particulars: SW900, 168 h, 3D culture, 7 days, CTG.
Text: as §2, §3, §4

The test system of experiment [8] is KRAS G12V mutant human colorectal cancer cell SW620. The experiment in a line: 3D cell proliferation inhibition assay, SW620. The conditions noted are these: SW-620, 168 h, 3D culture, 7 days, CTG. The essentials:
as §1

T1 sequence (P01116 1-188 isoform P01116-2 G12V): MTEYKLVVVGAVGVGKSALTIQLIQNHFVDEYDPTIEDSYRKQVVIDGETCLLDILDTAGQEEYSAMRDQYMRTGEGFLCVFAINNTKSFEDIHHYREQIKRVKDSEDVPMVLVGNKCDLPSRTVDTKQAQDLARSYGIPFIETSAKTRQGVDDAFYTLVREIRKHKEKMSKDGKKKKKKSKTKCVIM

Usually IC50 stands for the concentration that gives 50% inhibition. Lower therefore signals greater potency. Usually DC50 stands for the concentration giving 50% degradation. Lower therefore signals a more potent degrader. By Dmax is commonly meant the greatest extent of degradation seen. On to `C#Cc1c(F)ccc2cc(O)cc(-c3ncc4c(N5CCC[C@@](C)(O)C5)nc(OCC5(CN6CCN(CCCC7CCN(C(=O)c8ccc(Cl)c(N9CCC(=O)NC9=O)c8)CC7)CC6)CC5)nc4c3F)c12` [Example 4, (R)-1-(2-chloro-5-(4-(3-(4-((1-(((7-(8-ethynyl-7-fluoro-3-hydroxynaphthalen-1-yl)-8-fluoro-4-(3-hydroxy-3-methylpiperidin-1-yl)pyrido[4,3-d]pyrimidin-2-yl)oxy)methyl)cyclopropyl)methyl)piperazin-1-yl)propyl)piperidine-1-carbonyl)phenyl)dihydropyrimidine-2,4(1H,3H)-dione], for which the IC50 in experiment [1] is 50 to 100 nM; in experiment [2] it was 100 to 500 nM; in experiment [3], not above 50 nM; in experiment [4] it was not above 50 nM; in experiment [5] it was not above 50 nM; in experiment [7], not above 50 nM. For the same compound, the 50% degradation concentration (DC50) in experiment [6] was not above 50 nM. The Dmax in experiment [6] lay in the range of 80 to 100%.
As for `CCc1cccc2cc(O)cc(-c3ccc4c(N5CCC[C@@](C)(O)C5)nc(OCC5(CN6CCN(CC7CCC8(CC7)CCN(C(=O)c7ccc(Cl)c(N9CCC(=O)NC9=O)c7)CC8)CC6)CC5)nc4c3F)c12` [Example 12, (R)-1-(2-chloro-5-(9-((4-((1-(((7-(8-ethyl-3-hydroxynaphthalen-1-yl)-8-fluoro-4-(3-hydroxy-3-methylpiperidin-1-yl)quinazolin-2-yl)oxy)methyl)cyclopropyl)methyl)piperazin-1-yl)methyl)-3-azaspiro[5.5]undecane-3-carbonyl)phenyl)dihydropyrimidine-2,4(1H,3H)-dione], the IC50 in experiment [1] is 100 to 500 nM; in experiment [2], 100 to 500 nM; in experiment [3] it was not above 50 nM; in experiment [4], not above 50 nM; in experiment [5] it was not above 50 nM; in experiment [7] it was not above 50 nM. In experiment [8], this compound yielded an IC50 of 15.3 nM. In experiment [6], this compound yielded a DC50 not above 50 nM. Also, the Dmax in experiment [6] fell in the range of 80 to 100%.
Consider `C#Cc1c(F)ccc2cc(O)cc(-c3ncc4c(N5CCC[C@@](C)(O)C5)nc(OCC5(CN6CCN(CC7CCC8(CC7)CCN(C(=O)c7ccc9c(c7)C(=O)N(C7CCC(=O)NC7=O)C9=O)CC8)CC6)CC5)nc4c3F)c12` (stereo partly drawn) [Example 13, 2-(2,6-dioxopiperidin-3-yl)-5-(9-((4-((1-(((7-(8-ethynyl-7-fluoro-3-hydroxynaphthalen-1-yl)-8-fluoro-4-((R)-3-hydroxy-3-methylpiperidin-1-yl)pyrido[4,3-d]pyrimidin-2-yl)oxy)methyl)cyclopropyl)methyl)piperazin-1-yl)methyl)-3-azaspiro[5.5]undecane-3-carbonyl)isoindoline-1,3-dione], for which the IC50 is 500 to 1000 nM in experiment [2]; 500 to 1000 nM in experiment [3]; 50 to 100 nM in experiment [4]; 500 to 1000 nM in experiment [5]; not above 50 nM in experiment [7].
As for `C#Cc1c(F)ccc2cc(O)cc(-c3ccc4c(N5CCC[C@@](C)(O)C5)nc(OCC5(CN6CCN(CC7CCC8(CC7)CCN(C(=O)c7ccc(OC)c(N9CCC(=O)NC9=O)c7)CC8)CC6)CC5)nc4c3F)c12` [Example 21, (R)-1-(5-(9-((4-((1-(((7-(8-ethynyl-7-fluoro-3-hydroxynaphthalen-1-yl)-8-fluoro-4-(3-hydroxy-3-methylpiperidin-1-yl)quinazolin-2-yl)oxy)methyl)cyclopropyl)methyl)piperazin-1-yl)methyl)-3-azaspiro[5.5]undecane-3-carbonyl)-2-methoxyphenyl)dihydropyrimidine-2,4(1H,3H)-dione], the IC50 in experiment [1] is not above 50 nM; in experiment [2], 50 to 100 nM; in experiment [3] it was 100 to 500 nM; in experiment [4], not above 50 nM; in experiment [5], not above 50 nM; in experiment [7], not above 50 nM. The compound further gave an IC50 in experiment [8] of 5.54 nM. In experiment [6], this compound gave a DC50 not above 50 nM. For the same compound, the Dmax in experiment [6] lay within 80 to 100%.
Take `C#Cc1cccc2cc(O)cc(-c3ccc4c(N5CCC[C@@](C)(O)C5)nc(OCC5(CN6CCN(CC7CCC8(CC7)CCN(C(=O)c7ccc(OC)c(N9CCC(=O)NC9=O)c7)CC8)CC6)CC5)nc4c3F)c12` [Example 24, (R)-1-(5-(9-((4-((1-(((7-(8-ethynyl-3-hydroxynaphthalen-1-yl)-8-fluoro-4-(3-hydroxy-3-methylpiperidin-1-yl)quinazolin-2-yl)oxy)methyl)cyclopropyl)methyl)piperazin-1-yl)methyl)-3-azaspiro[5.5]undecane-3-carbonyl)-2-methoxyphenyl)dihydropyrimidine-2,4(1H,3H)-dione]: the concentration for half-maximal inhibition (IC50) in experiment [1] was not above 50 nM; in experiment [2], 100 to 500 nM; in experiment [3], 100 to 500 nM; in experiment [4], not above 50 nM; in experiment [5] it was 50 to 100 nM; in experiment [7], not above 50 nM. The compound also returned an IC50 in experiment [8] of 9.33 nM. The compound further came in with a DC50 in experiment [6] not above 50 nM. This compound returned a Dmax in experiment [6] of 80 to 100%.
Regarding `C#Cc1c(F)ccc2cc(O)cc(-c3ccc4c(N5CCC[C@@](C)(O)C5)nc(OCC5(CN6CCC(CCOCC7CCN(C(=O)c8ccc(C)c(N9CCC(=O)NC9=O)c8)CC7)CC6)CC5)nc4c3F)c12` [Example 34, (R)-1-(5-(4-((2-(1-((1-(((7-(8-ethynyl-7-fluoro-3-hydroxynaphthalen-1-yl)-8-fluoro-4-(3-hydroxy-3-methylpiperidin-1-yl)quinazolin-2-yl)oxy)methyl)cyclopropyl)methyl)piperidin-4-yl)ethoxy)methyl)piperidine-1-carbonyl)-2-methylphenyl)dihydropyrimidine-2,4(1H,3H)-dione], the IC50 is not above 50 nM in experiment [1]; 100 to 500 nM in experiment [2]; 50 to 100 nM in experiment [3]; not above 50 nM in experiment [4]; not above 50 nM in experiment [5]; not above 50 nM in experiment [7]. Further, the DC50 in experiment [6] is not above 50 nM. In experiment [6], this compound gave a Dmax of 80 to 100%.
`C#Cc1c(F)ccc2cc(O)cc(-c3ncc4c(N5CCC[C@@](C)(O)C5)nc(OCC5(CN6CCN(CC7CCC8(CC7)CCN(C(=O)c7ccc9c(c7)C(=O)N(C7CCC(=O)NC7=O)C9)CC8)CC6)CC5)nc4c3F)c12` (stereo partly drawn) [Example 35, 3-(6-(9-((4-((1-(((7-(8-ethynyl-7-fluoro-3-hydroxynaphthalen-1-yl)-8-fluoro-4-((R)-3-hydroxy-3-methylpiperidin-1-yl)pyrido[4,3-d]pyrimidin-2-yl)oxy)methyl)cyclopropyl)methyl)piperazin-1-yl)methyl)-3-azaspiro[5.5]undecane-3-carbonyl)-1-oxoisoindolin-2-yl)piperidine-2,6-dione]: the IC50 in experiment [1] was not above 50 nM; in experiment [2] it was 500 to 1000 nM; in experiment [3], not above 50 nM; in experiment [4], not above 50 nM; in experiment [5], not above 50 nM; in experiment [7], 100 to 500 nM. The DC50 in experiment [6] was not above 50 nM. The Dmax in experiment [6] is 80 to 100%.

(Values after patent publication US20260167622A1, “PAN-KRAS DEGRADING AGENT, AND PREPARATION METHOD THEREFOR AND USE THEREOF” (LEADINGTAC PHARMACEUTICAL (SHAOXING) CO., LTD., priority 2022, published 2026).)
